Measurements reported in US10800757B2, “Inhibitors of TRPC6” (Boehringer Ingelheim International GmbH, priority 2017, dated 2020).

target: TRPC6 (Homo sapiens (Human), UniProt Q9Y210); experiment: High throughput screening assay: fluorescent calcium (Fluo4/AM) assay of TRPC6 channel activation by GSK1702934A in HEK293/TREx cells; assay type: cell-based; settings: HEK293/TREx cells stably transfected with TRPC6; agonist GSK1702934A; 7 concentrations 20 μM to 0.027 μM, triplicate
From the text: This screening assay measures TRPC6 (transient receptor potential cation channel, subfamily C, member 6) ion channel activation via addition either of the commercially available DAG ligand analogue OAG (1-oleoyl-2-acetyl-sn-glycerol) or of the TRPC6 agonist 1-[1-(4,5,6,7,8-pentahydrocyclohepta[2,1-d]thiophen-2-ylcarbonyl)-4-piperidyl]-3-hydrobenzimidazol-2-one (GSK1702934A). The assay utilizes a FLIPR fluorescent calcium sensor 4-(6-Acetoxymethoxy-2,7-difluoro-3-oxo-9-xanthenyl)-4′-methyl-2,2′-(ethylenedioxy)dianiline-N,N,N′,N′-tetraacetic acid tetrakis(acetoxymethyl) ester (Fluo4/AM) […]. Changes (increases) in intracellular membrane calcium concentration potential as measured by the fluorescent signal increase during membrane depolarization provide a measurement of channel activity.
The commercially available HEK293/TREx line (Invitrogen) was stably transfected with a TRPC6 construct and screened by conventional calcium imaging to find clones with TRPC6 expression following stimulation with 1 μg/ml tetracycline. These cells were maintained in the growth medium recommended by the manufacturer supplemented with 100 μg/ml hygromycin to promote retention of the TRPC6 construct. After growing to near confluency, cells were plated at a density of ^˜35,000 cells/well in 384 well CellBind plates (Corning) in the presence of 1 μg/ml tetracycline, and allowed to grow for 20-30 hrs. A nearly confluent monolayer resulted. Growth media was removed from the wells and cells were then loaded with […] Fluo4/AM diluted in Ringer's Solution (6.5 g NaCl, 0.42 g KCl, 0.25 g CaCl2) and 0.2 g of sodium bicarbonate; pH 7.4) supplemented with 1% Pluronic F-127 to a final concentration of 0.5 μM and incubated for 60 min, at room temperature. Dye solution was then removed from the cells by inverting plates with a sharp flick, and replaced with 25 μl Ringer's. Following ^˜0.5 hour for recovery from loading, cells were assayed using the Hamamatsu FDSS 6000 system, which permitted illumination at 485 nm. Frames were acquired at a rate of 0.2 Hz. During the assay, the plates were continuously vortexed, with pipette mixing of wells following addition of each reagent. For the screening assay, 26 μl of a diluted compound stock (at 50 μM) was added to each well for 2 minutes following the collection of a short (4 frame) baseline. 13 μl of agonist solution consisting of 125 nM GSK1702934A diluted in high-Ca2+Ringer solution (containing 90 mm Ca2+) was then added to each well, achieving a final concentration of 20 mm Ca2+ and 10 μM test compound. Data was collected for ^˜3 minutes following addition of high Ca2+Ringer. The fluorescent ratio for each well was divided by the initial fluorescent intensity for that well and the overall response was determined by averaging the fluorescent ratio of the last 4 frames acquired during the experiment excepting the final frame. Negative and Positive controls were included on each plate. Negative controls wells consisted of HEK293/TREx TRPC6 cells exposed to assay buffer and agonist solution, but no test compound. Positive control consisted of wells consisted of HEK293/TREx TRPC6 cells exposed to 25 μM 3-[(2-chlorophenoxy)methyl]phenyl piperidyl ketone (Chembridge) diluted in Ringer's solution and agonist solution. These controls defined zero percent and 100 percent block respectively, and intensity of each well was normalized to these values.
Compounds were tested in triplicate at all concentrations. Standard software was used to fit IC50 curves.

Sequence of TRPC6 (Q9Y210 whole entry, species assumed): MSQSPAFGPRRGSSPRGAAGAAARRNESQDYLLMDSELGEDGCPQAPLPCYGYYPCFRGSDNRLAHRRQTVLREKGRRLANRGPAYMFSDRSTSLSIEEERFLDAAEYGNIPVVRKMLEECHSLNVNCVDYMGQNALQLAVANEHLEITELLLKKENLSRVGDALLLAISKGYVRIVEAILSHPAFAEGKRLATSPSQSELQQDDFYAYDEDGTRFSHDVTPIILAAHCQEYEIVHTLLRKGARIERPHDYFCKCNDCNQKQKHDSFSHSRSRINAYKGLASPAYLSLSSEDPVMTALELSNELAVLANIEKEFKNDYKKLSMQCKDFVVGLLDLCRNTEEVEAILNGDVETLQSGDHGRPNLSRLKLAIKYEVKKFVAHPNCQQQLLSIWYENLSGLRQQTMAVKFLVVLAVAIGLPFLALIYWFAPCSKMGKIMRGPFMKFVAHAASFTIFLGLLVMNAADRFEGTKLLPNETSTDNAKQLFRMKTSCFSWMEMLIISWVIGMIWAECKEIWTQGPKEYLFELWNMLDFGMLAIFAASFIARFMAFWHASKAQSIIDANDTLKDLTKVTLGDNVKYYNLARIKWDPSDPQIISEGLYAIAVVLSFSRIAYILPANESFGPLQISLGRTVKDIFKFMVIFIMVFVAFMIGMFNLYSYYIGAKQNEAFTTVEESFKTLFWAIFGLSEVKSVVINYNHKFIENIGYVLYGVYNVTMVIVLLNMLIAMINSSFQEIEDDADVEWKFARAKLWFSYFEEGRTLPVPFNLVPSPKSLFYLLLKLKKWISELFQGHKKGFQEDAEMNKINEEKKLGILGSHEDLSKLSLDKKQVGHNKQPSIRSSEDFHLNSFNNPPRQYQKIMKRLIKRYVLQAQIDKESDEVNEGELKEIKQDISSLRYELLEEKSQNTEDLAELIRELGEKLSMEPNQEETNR

Structure (SMILES) | IC50 [nM]
CCOc1cc(N)nnc1C1CCN(C(=O)c2cc(OC)c(Oc3ccc(C(F)(F)F)cc3)cn2)CC1 [Compound 87] | 620
COc1cc(N)nnc1C1CCN(C(=O)c2ccc(Oc3ccc(C(F)(F)F)cc3)cn2)CC1 [Compound 91, 5-Methoxy-6-(1-{5-[4-(trifluoromethyl)phenoxy]pyridine-2-carbonyl}piperidin-4-yl)pyridazin-3-amine trifluoroacetic acid] | 414
COc1cc(C(=O)N2CCC(c3cnc(N)cc3OC)CC2)ncc1OC(C)C [Compound 72, (6-Amino-4-methoxy-3′,4′,5′,6′-tetrahydro-2′H-[3,4′]bipyridinyl-1′-yl)-(5-isopropoxy-4-methoxy-pyridin-2-yl)-methanone] | 910
COc1cc(C(=O)N2CCC(c3ccc(N)nn3)CC2)ncc1OC1CCCCC1 [Compound 62, [4-(6-Amino-pyridazin-3-yl)-piperidin-1-yl]-(5-cyclohexyloxy-4-methoxy-pyridin-2-yl)-methanone] | 550
COc1cc(C(=O)N2CCC(c3ccc(N)nn3)CC2)ncc1Oc1ccc(OC2CC2)cc1 [Compound 40, [4-(6-Amino-pyridazin-3-yl)-piperidin-1-yl]-[5-(4-cyclopropoxy-phenoxy)-4-methoxy-pyridin-2-yl]-methanone] | 170
COc1cc(C(=O)N2C3CCC2CN(c2cnc(N)cc2OC)C3)ncc1Oc1ccccc1 [Compound 51, [3-(6-Amino-4-methoxy-pyridin-3-yl)-3,8-diaza-bicyclo[3.2.1]oct-8-yl]-(4-methoxy-5-phenoxy-pyridin-2-yl)-methanone] | 290
COc1cc(C(=O)N2CCC(c3cnc(N)cc3OC)CC2)ncc1OCC(C)C(F)(F)F (single isomer, unassigned) [Compound 94a, 4-Methoxy-5-(1-{4-methoxy-5-[3,3,3-trifluoro-2-methylpropoxy]pyridine-2-carbonyl}piperidin-4-yl)-pyridin-2-amine] | 343
CCCOc1cnc(C(=O)N2CCC(c3ccc(N)nn3)CC2)cc1OC [Compound 76, [4-(6-Amino-pyridazin-3-yl)-piperidin-1-yl]-(4-methoxy-5-propoxy-pyridin-2-yl)-methanone] | 1800
COc1cc(C(=O)N2CCC(c3ccc(N)nn3)CC2)ncc1OCC(C)C [Compound 36, [4-(6-Amino-pyridazin-3-yl)-piperidin-1-yl]-(5-isobutoxy-4-methoxy-pyridin-2-yl)-methanone] | 97
COc1cc(C(=O)N2CCC(c3cnc(N)cc3OC)CC2)ncc1OCC(C)C(F)(F)F (single isomer, unassigned) [Compound 94b, 4-Methoxy-5-(1-{4-methoxy-5-[3,3,3-trifluoro-2-methylpropoxy]pyridine-2-carbonyl}piperidin-4-yl)-pyridin-2-amine] | 351
COc1cc(C(=O)N2CCC(c3cnc(N)cc3OC)CC2)ncc1OCc1ccccc1 [Compound 43, (6-Amino-4-methoxy-3′,4′,5′,6′-tetrahydro-2′H-[3,4′]bipyridinyl-1′-yl)-(5-benzyloxy-4-methoxy-pyridin-2-yl)-methanone] | 140
COc1cc(C(=O)N2CCC(c3nnc(N)cc3C)CC2)ncc1Oc1ccc(C(F)(F)F)cc1 [Compound 90, 6-(1-{4-Methoxy-5-[4-(trifluoromethyl)phenoxy]pyridine-2-carbonyl}piperidin-4-yl)-5-methylpyridazin-3-amine trifluoroacetic acid] | 364
COc1cc(C(=O)N2CCC(c3cnc(N)cc3OC)CC2)ncc1O[C@@H](C)C1CC1 [Compound 70, (6-Amino-4-methoxy-3′,4′,5′,6′-tetrahydro-2′H-[3,4′]bipyridinyl-1′-yl)-[5-((S)-1-cyclopropyl-ethoxy)-4-methoxy-pyridin-2-yl]-methanone] | 640
COc1cc(C(=O)N2CCC(c3ccc(N)nn3)CC2)ncc1OCC(C)(C)C [Compound 74, [4-(6-Amino-pyridazin-3-yl)-piperidin-1-yl]-[5-(2,2-dimethyl-propoxy)-4-methoxy-pyridin-2-yl]-methanone] | 1400

The remaining lines, values ahead:

IC50 [nM] | Structure (SMILES)
< 27 | COc1cc(C(=O)N2CCN(c3cnc(N)cc3OC)CC2)ncc1Oc1ccc(F)cc1 [Compound 1, 5-{4-[5-(4-Fluorophenoxy)-4-methoxypyridine-2-carbonyl]piperazin-1-yl}-4-methoxypyridin-2-amine]
110 | COc1cc(C(=O)N2CCC(c3cnc(N)cc3OC)CC2)ncc1OC1CCCCC1 [Compound 30, (6-Amino-4-methoxy-3′,4′,5′,6′-tetrahydro-2′H-[3,4′]bipyridinyl-1′-yl)-(5-cyclohexyloxy-4-methoxy-pyridin-2-yl)-methanone]
70 | COc1cc(C(=O)N2CCC(c3ccc(N)nn3)CC2)ncc1OCC1CCC1 [Compound 25, [4-(6-Amino-pyridazin-3-yl)-piperidin-1-yl]-(5-cyclobutylmethoxy-4-methoxy-pyridin-2-yl)-methanone]
27 | COc1ccc(Oc2cnc(C(=O)N3CCN(c4ccc(N)nc4)CC3)cc2OC)cc1 [Compound 12, [4-(6-Amino-pyridin-3-yl)-piperazin-1-yl]-[4-methoxy-5-(4-methoxy-phenoxy)-pyridin-2-yl]-methanone]
46 | COc1ccc(Oc2cnc(C(=O)N3CCC(c4ccc(N)nc4)CC3)cc2OC)cc1 [Compound 22, (6-Amino-3′,4′,5′,6′-tetrahydro-2′H-[3,4′]bipyridinyl-1′-yl)-[4-methoxy-5-(4-methoxy-phenoxy)-pyridin-2-yl]-methanone]
94 | COc1cc(C(=O)N2CCC(c3cnc(N)cc3OC)CC2)ncc1OC1CCCC1 [Compound 35, (6-Amino-4-methoxy-3′,4′,5′,6′-tetrahydro-2′H-[3,4′]bipyridinyl-1′-yl)-(5-cyclopentyloxy-4-methoxy-pyridin-2-yl)-methanone]
98 | CCOc1cc(C(=O)N2CCC(c3ccc(N)nn3)CC2)ncc1Oc1ccccc1 [Compound 83, [4-(6-Amino-pyridazin-3-yl)-piperidin-1-yl]-[5-(phenoxy)-4-ethoxy-pyridin-2-yl]-methanone]
27 | COc1cc(C(=O)N2CCN(c3cnc(N)cc3OC)CC2)ncc1Oc1ccccc1 [Compound 5, [4-(6-Amino-4-methoxy-pyridin-3-yl)-piperazin-1-yl]-(4-methoxy-5-phenoxy-pyridin-2-yl)-methanone]
100 | COc1cc(N)ncc1N1CCN(C(=O)c2ccc(Oc3ccccc3)cn2)[C@@H]([C@H](C)O)C1 [Compound 58, (1S)-1-[(2R)-4-(6-amino-4-methoxypyridin-3-yl)-1-(5-phenoxypyridine-2-carbonyl)piperazin-2-yl]ethan-1-ol]
43 | COc1cc(C(=O)N2CCC(c3cc(OC)c(N)nn3)CC2)ncc1Oc1ccccc1 [Compound 21, [4-(6-Amino-5-methoxy-pyridazin-3-yl)-piperidin-1-yl]-(4-methoxy-5-phenoxy-pyridin-2-yl)-methanone]
47 | COc1cc(N)ncc1N1CCN(C(=O)c2ccc(Oc3ccccc3)cn2)[C@@H]([C@@H](C)O)C1 [Compound 50, (1R)-1-[(2R)-4-(6-amino-4-methoxypyridin-3-yl)-1-(5-phenoxypyridine-2-carbonyl)piperazin-2-yl]ethan-1-ol]
75 | COC[C@H]1CN(c2cnc(N)cc2OC)CCN1C(=O)c1cc(OC)c(Oc2ccccc2)cn1 [Compound 27, [(R)-4-(6-Amino-4-methoxy-pyridin-3-yl)-2-methoxymethyl-piperazin-1-yl]-(4-methoxy-5-phenoxy-pyridin-2-yl)-methanone]
29 | COc1cc(C(=O)N2CCC(c3ccc(N)nn3)CC2)ncc1Oc1ccc(F)cc1 [Compound 17, 6-{1-[5-(4-Fluorophenoxy)-4-methoxypyridine-2-carbonyl]piperidin-4-yl}pyridazin-3-amine]
